Measurements published in PMC9305623, “Next generation GLP-1/GIP/glucagon triple agonists normalize body weight in obese mice” (Molecular Metabolism, 2022).
*1 amine or outer side, *2 acyl side, *3 side chain or, on linkers, in order; H or OH if unused. Where a SMILES comes first, the peptide text is derived from it. Side-chain parts run from the residue outwards. [ ]: non-standard residue; d: D form. The star is where a group is joined. C20 diacid = O=C(O)CCCCCCCCCCCCCCCCCCC(=O)*; γGlu = O=C(O)[C@H](CCC(=O)[*:2])N[*:1]; εLys = N[C@@H](CCCCN[*:1])C(=O)[*:2]; Aib = CC(C)(N)C(=O)O

Assays:
hGIP Receptor = molecular target: T1, hGIP Receptor (Homo sapiens, UniProt P48546); assay: Receptor activation: cAMP production by CRE-luciferase reporter in stably transfected BHK cells; format: cell-based; details: compared to the native ligand for the receptor
T1 construct: expressed in transfected cells; host or cells: baby hamster kidney (BHK) cells, stably transfected, with CRE-firefly luciferase reporter
T1 sequence (P48546 22-466): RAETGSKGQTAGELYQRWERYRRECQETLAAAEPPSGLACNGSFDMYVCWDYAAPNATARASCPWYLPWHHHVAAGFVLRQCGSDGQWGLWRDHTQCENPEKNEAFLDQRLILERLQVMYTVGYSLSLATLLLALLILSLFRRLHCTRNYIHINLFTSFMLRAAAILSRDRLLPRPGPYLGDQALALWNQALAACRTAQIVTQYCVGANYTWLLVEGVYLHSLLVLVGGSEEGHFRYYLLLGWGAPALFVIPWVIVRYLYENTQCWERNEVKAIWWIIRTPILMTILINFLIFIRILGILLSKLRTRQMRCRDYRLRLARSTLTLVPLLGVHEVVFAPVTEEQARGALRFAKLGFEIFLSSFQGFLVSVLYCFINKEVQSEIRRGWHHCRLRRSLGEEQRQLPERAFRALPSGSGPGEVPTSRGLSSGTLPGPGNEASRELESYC
Summary of the method: (§1)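 BHK cells stably expressing one human receptor plus a CRE-firefly luciferase reporter were stimulated 3 h at 37 °C in phenol-red-free DMEM with 1% ovalbumin and 0.1% Pluronic F-68.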

hGLP-1 Receptor = molecular target: T2, hGLP-1 Receptor (Homo sapiens, UniProt P43220); assay: as above; format: cell-based; details: compared to the native ligand for the receptor
T2 construct: expressed in transfected cells; host or cells: baby hamster kidney (BHK) cells, stably transfected, with CRE-firefly luciferase reporter
Summary of the method: as §1

hGcg Receptor = molecular target: T3, hGcg Receptor (Homo sapiens, UniProt P47871); assay: as above; format: cell-based; details: compared to the native ligand for the receptor
T3 construct: expressed in transfected cells; host or cells: baby hamster kidney (BHK) cells, stably transfected, with CRE-firefly luciferase reporter
Summary of the method: as §1

DIO mice [1] = assay: Pharmacodynamics in DIO mice: body weight, food intake, body composition; format: in vivo, mouse (male C57BL/6J)
Protocol: Studies were approved by and performed according to the guidelines of the Institutional Animal Care and Use Committee of the University of Cincinnati. Male C57BL/6J mice (Jackson Laboratories) were housed 4 per cage, exposed to a controlled 12 h/12 h light–dark cycle at room temperature (22 °C), and provided ab libitum access to water and a 58% fat, high-sugar diet (D12331, Research Diets) for 12 weeks. Mice exceeding 50 g of body weight were considered diet-induced obese (DIO) and included in studies, where they were randomized and evenly distributed to test groups (n = 8 per group) according to body weight. Test compounds dissolved at a concentration of 0.5–2 μM in a vehicle (pH 7.4) containing 0.05% polysorbate-80, 50 mM sodium phosphate, and 70 mM sodium chloride were administered subcutaneously once daily, unless otherwise noted, during the light cycle for each day of treatment at a volume of 2–5 μL per gram of body weight as necessary to achieve the desired dose. Body weight and food intake were measured immediately prior to dosing each day. The percent change in body was calculated individually for each mouse based on initial body weight prior to the first injection. For intraperitoneal (i.p.) glucose tolerance tests (IPGTT), animals were fasted for 6 h prior to the test but had access to water. Fasted blood glucose levels were measured, then mice were injected with an i.p. glucose load of 2 g/kg from a 200 mg/mL aqueous glucose solution. Tail blood glucose levels were measured 0, 15, 30, 60, 90, and 120 min following the glucose load using a handheld glucometer (Freestyle, Abbott).

DIO mice [2] = assay: Energy expenditure in DIO mice (indirect calorimetry); format: in vivo, mouse; details: daily injections of 3 nmol/kg for 5 days inside an indirect calorimeter
Protocol: Energy expenditure was assessed using a combined indirect calorimetry system (TSE Systems, Chesterfield, MO). Animals were kept in the indirect calorimetry system for 7d; d1 (0–24h) included acclimation to the new cages but no energy expenditure readings, d2 included baseline energy expenditure readings with vehicle injections, d3-7 included experimental energy expenditure readings and treatment injections. Treatment injections begin at t = 48h as indicated by the vertical dashed line and were performed every 24h as indicated by the arrows. O2 consumption and CO2 production were measured every 20 min to determine the respiratory quotient and energy expenditure using the Weir equation (EE=(3.94 x vO2) + (1.1 x vCO2)).

T2 sequence (P43220 24-463): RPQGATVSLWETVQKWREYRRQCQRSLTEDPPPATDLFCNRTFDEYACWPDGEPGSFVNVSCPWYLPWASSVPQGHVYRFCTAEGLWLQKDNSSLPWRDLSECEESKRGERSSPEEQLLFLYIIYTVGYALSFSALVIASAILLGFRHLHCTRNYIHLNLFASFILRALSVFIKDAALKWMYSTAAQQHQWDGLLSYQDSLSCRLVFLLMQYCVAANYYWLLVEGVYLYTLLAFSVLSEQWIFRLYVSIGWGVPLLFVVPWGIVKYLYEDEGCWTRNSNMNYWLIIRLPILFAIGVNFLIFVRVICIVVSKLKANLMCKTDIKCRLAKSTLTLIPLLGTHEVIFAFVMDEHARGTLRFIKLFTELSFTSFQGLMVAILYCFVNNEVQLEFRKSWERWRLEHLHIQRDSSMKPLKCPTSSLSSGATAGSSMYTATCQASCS
T3 sequence (P47871 26-477): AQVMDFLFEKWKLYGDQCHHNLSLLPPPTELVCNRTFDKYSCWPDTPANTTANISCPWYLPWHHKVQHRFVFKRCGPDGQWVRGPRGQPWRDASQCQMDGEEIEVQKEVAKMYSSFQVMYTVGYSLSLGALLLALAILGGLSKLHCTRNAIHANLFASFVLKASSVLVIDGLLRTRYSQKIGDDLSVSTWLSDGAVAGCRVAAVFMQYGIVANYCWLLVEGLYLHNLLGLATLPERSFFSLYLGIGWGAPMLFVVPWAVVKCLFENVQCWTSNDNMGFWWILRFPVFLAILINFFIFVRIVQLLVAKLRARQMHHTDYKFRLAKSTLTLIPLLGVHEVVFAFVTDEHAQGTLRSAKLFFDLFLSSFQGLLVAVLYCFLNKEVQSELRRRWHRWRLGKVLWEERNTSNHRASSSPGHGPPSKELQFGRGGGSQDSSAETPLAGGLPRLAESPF

In the case of CC[C@H](C)[C@H](NC(=O)[C@H](CO)NC(=O)[C@H](Cc1ccc(O)cc1)NC(=O)[C@H](CC(=O)O)NC(=O)[C@H](CO)NC(=O)[C@@H](NC(=O)[C@H](Cc1ccccc1)NC(=O)[C@@H](NC(=O)CNC(=O)[C@H](Cc1c[nH]cn1)NC(=O)C(C)(C)NC(=O)[C@@H](N)Cc1c[nH]cn1)[C@@H](C)O)[C@@H](C)O)C(=O)N[C@@H](Cc1ccc(O)cc1)C(=O)N[C@@H](CC(C)C)C(=O)N[C@@H](CCC(=O)O)C(=O)N[C@@H](CCCCNC(=O)[C@@H](N)CCCCNC(=O)[C@@H](N)CCCCNC(=O)CC[C@H](NC(=O)CCCCCCCCCCCCCCCCCCC(=O)O)C(=O)O)C(=O)N[C@@H](CCCCN)C(=O)N[C@@H](Cc1ccc(O)cc1)C(=O)N[C@@H](C)C(=O)NC(C)(C)C(=O)N[C@@H](CCC(=O)O)C(=O)N[C@@H](Cc1ccccc1)C(=O)N[C@H](C(=O)N[C@@H](CCC(N)=O)C(=O)N[C@@H](Cc1c[nH]c2ccccc12)C(=O)N[C@@H](CC(C)C)C(=O)N[C@@H](CC(C)C)C(=O)N[C@@H](CCC(=O)O)C(=O)NCC(=O)NCC(=O)N1CCC[C@H]1C(=O)N[C@@H](CO)C(=O)N[C@@H](CO)C(=O)NCC(=O)N[C@@H](C)C(=O)N1CCC[C@H]1C(=O)N1CCC[C@H]1C(=O)N1CCC[C@H]1C(=O)N[C@@H](CO)C(N)=O)C(C)C [Compound 16] (H-H[Aib]HGTFTSDYSIYLEK([εLys-εLys-γGlu-C20 diacid])KYA[Aib]EFVQWLLEGGPSSGAPPPS-NH2), the “hGIP Receptor Relative Potency %” value (hGIP Receptor) is reported as 67%, the “hGLP-1 Receptor Relative Potency %” value (hGLP-1 Receptor) is reported as 177% and the “hGcg Receptor Relative Potency %” value (hGcg Receptor) is reported as 102%. The “body weight loss at high dose versus first generation triagonist and SAR441255” value (DIO mice [1]; 2 nmol/kg) was “significantly superior body weight loss”, the “weight lowering efficacy versus tirzepatide” value (DIO mice [1]; 3 nmol/kg daily and dose-escalated (1 to 30 nmol/kg) groups, s.c.) was “significantly more weight lowering efficacy” and the Body weight reductions (DIO mice [1]; 3 nmol/kg daily dose s.c., after 2 weeks of treatment) was “greater than 30%”. For the same molecule, the “origin of weight loss (fat mass vs lean mass)” value (DIO mice [1]; 1 or 2 nmol/kg) was “predominantly derived from a reduction in fat mass, not lean mass”, the “animals achieving body weight normalization (average weight of lean litter mates, 22.5 g)” value (DIO mice [1]; n = 8 per group, up-titrated from 1 to 10 nmol/kg over 24 days, then 10 nmol/kg for up to 18 days) was “Five of the eight” and the “body weight loss in animals achieving body weight normalization” value (DIO mice [1]; s.c. once daily, up-titrated from 1 to 10 nmol/kg over 24 days, then 10 nmol/kg for up to 18 days) was 55–60%. For the same molecule, the energy expenditure (DIO mice [2]) was “increased energy expenditure over both vehicle and tirzepatide” and the locomotor activity (DIO mice [2]) was “not accompanied by a change in locomotor activity”.
